# Source: patent US11780823B2, “Indazole-3-carboxamides and their use as Wnt/β-catenin signaling pathway inhibitors” (BioSplice Therapeutics, Inc., priority 2011, dated 2023)
# Tested on: Wnt activity (wnt-responsive SP5 promoter luciferase reporter in SW480 cells)
# Experiment: Wnt reporter screening assay: SP5 promoter-driven firefly luciferase in SW480 cells
# Assay type: cell-based
# Conditions: Homo sapiens; SW480 colon cancer cells with SP5 promoter luciferase reporter; half-log dilutions, ten micromolar top concentration; read 24-40 h after compound addition; normalized to DMSO; read-out: Wnt inhibition
# In short: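 Described as a possible protocol: SW480 cells (APC-mutant colon cancer) stably carrying an SP5 promoter (eight TCF/LEF sites) firefly luciferase reporter, ~10,000 per well. BrightGlo luminescence normalized to DMSO wells for IC50.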
row,Structure (SMILES),IC50 [nM]
1,"O=C(Nc1ccc(N2CCCC2)nc1)c1n[nH]c2ccc(-c3cncc(N4CCOCC4)c3)cc12 [Compound 187, 5-(5-Morpholinopyridin-3-yl)-N-(6-(pyrrolidin-1-yl)pyridin-3-yl)-1H-indazole-3-carboxamide]",215
2,"O=C(Nc1cccnc1)c1n[nH]c2ccc(-c3cncc(CN4CCC(F)(F)C4)c3)cc12 [Compound 188, 5-(5-((3,3-Difluoropyrrolidin-1-yl)methyl)pyridin-3-yl)-N-(pyridin-3-yl)-1H-indazole-3-carboxamide]",9
3,"O=C(Nc1cccnc1)c1n[nH]c2ccc(-c3cncc(N4CCCC4)c3)cc12 [Compound 189, N-(Pyridin-3-yl)-5-(5-(pyrrolidin-1-yl)pyridin-3-yl)-1H-indazole-3-carboxamide]",85
4,"CN(C)Cc1cncc(-c2ccc3[nH]nc(C(=O)Nc4ccc(N5CCCC5)nc4)c3c2)c1 [Compound 190, 5-(5-((Dimethylamino)methyl)pyridin-3-yl)-N-(6-(pyrrolidin-1-yl)pyridin-3-yl)-1H-indazole-3-carboxamide]",1200
